In BindingDB's records for doi:10.1021/jm00081a009 (Glaxo Group Research, 1992) one finds IC50 data, which are given here for 23 compounds.

As usually defined, the IC50 is the concentration needed to halve the response being measured. Read a high IC50 as a need for much substance.

Each structure is given as a SMILES string.

One assay in a line: Opioid receptor kappa agonist potency was determined in vitro using rabbit vas deferens(LVD) preparation.
In turn, `O=C(Cc1ccc(Cl)c(Cl)c1)N1CCCCC1CN1CCC(O)C1` (stereo not drawn) gave an IC50 of 0.88 nM. In the case of `COC(=O)/C=C1\CCN(CC2CCCCN2C(=O)Cc2ccc(Cl)c(Cl)c2)C1` (stereo not drawn), the IC50 was determined as 1020 nM.

In turn, `COC(=O)[C@@H]1CCN(C(=O)Cc2ccc(Cl)c(Cl)c2)[C@H](CN2CCCC2)C1` displayed an IC50 of 250 nM. Still for that read-out and setting: to `O=C(Cc1ccc(Cl)c(Cl)c1)N1CCC[C@@H](O)[C@H]1CN1CCCC1` belongs 590 nM; to `C=C1CCN(CC2CCCCN2C(=O)Cc2ccc(Cl)c(Cl)c2)C1` (stereo not drawn), 29 nM; to `O=C1CCN(C(=O)Cc2ccc(Cl)c(Cl)c2)C(CN2CCCC2)C1` (stereo not drawn), 46 nM. The same measure, in the same setting: to `C=CCC1(CN2CCCC2)CCCCN1C(=O)Cc1ccc(Cl)c(Cl)c1` (stereo not drawn) belongs above 10000 nM; to `O=C(Cc1ccc(Cl)c(Cl)c1)N1CCCCC1CN1CCCCC1` (stereo not drawn), 260 nM; to `CC1(CN2CCCC2)CCCCN1C(=O)Cc1ccc(Cl)c(Cl)c1` (stereo not drawn), above 10000 nM.

As for `C[C@H]1CCC[C@@H](CN2CCCC2)N1C(=O)Cc1ccc(Cl)c(Cl)c1`, the half-inhibitory concentration (IC50) is 1.7 nM. In turn, `O=C(Cc1ccc(Cl)c(Cl)c1)N1CCC2(CC1CN1CCCC1)SCCS2` (stereo not drawn) gave an IC50 of 5 nM. Compound `O=C(Cc1ccc(Cl)c(Cl)c1)N1CC[C@H](O)C[C@H]1CN1CCCC1` returned a 50% inhibitory concentration (IC50) of 1400 nM.

A short description of a further assay: Kappa-opioid receptor agonist potency in vitro using rabbit vas deferens(LVD) preparation.
Turning to `NC(=O)[C@@H]1CCN(C(=O)Cc2ccc(Cl)c(Cl)c2)[C@H](CN2CCCC2)C1`, the IC50 was 1200 nM. `O=C(Cc1ccc(Cl)c(Cl)c1)N1CC2(CC[C@H]1CN1CCCC1)OCCO2` had an IC50 of 160 nM. `COC(=O)[C@H]1CC[C@@H](CN2CCCC2)N(C(=O)Cc2ccc(Cl)c(Cl)c2)C1` came in with an IC50 of 300 nM. As to `NC(=O)[C@H]1CC[C@@H](CN2CCCC2)N(C(=O)Cc2ccc(Cl)c(Cl)c2)C1`, the concentration for half-maximal inhibition (IC50) was above 10000 nM. On the same count and under the same terms, to `O=C(Cc1ccc(Cl)c(Cl)c1)N1CCCCC1CN1CCCO1` (stereo not drawn) belongs 69 nM; to `O=C1CC[C@@H](CN2CCCC2)N(C(=O)Cc2ccc(Cl)c(Cl)c2)C1`, 390 nM.

Turning to `COC(=O)C1=CCCN(CC2CCCCN2C(=O)Cc2ccc(Cl)c(Cl)c2)C1` (stereo not drawn), the IC50 worked out at 15 nM.

`COC(=O)[C@@H]1CCC[C@@H](CN2CCCC2)N1C(=O)Cc1ccc(Cl)c(Cl)c1` showed an IC50 of 110 nM. This IC50 is about 7.3-fold higher than that of the compound before. On the same count and under the same terms, for `NC(=O)[C@H]1CCC[C@@H](CN2CCCC2)N1C(=O)Cc1ccc(Cl)c(Cl)c1` the value was above 10000 nM; for `O=C1CCCN(C(=O)Cc2ccc(Cl)c(Cl)c2)C1CN1CCCC1` (stereo not drawn), 2000 nM. `O=C(Cc1ccc(Cl)c(Cl)c1)N1CCCCC1CN1CC=CCC1` (stereo not drawn) had an IC50 of 6.3 nM. This IC50 lies about 320-fold lower than the previous one.
